Assay [1] has as its system brain-specific receptors of rats (3H-benzodiazepine binding). Nature of the assay: Inhibition of the binding of 3H-benzodiazepine to brain-specific receptors of rats. Details: species or system rat (Wistar strain). Conditions: rat cortex P2-fraction; 3H-diazepam 1.5 nM or 3H-flunitrazepam 1.0 nM; pH 7.4; 30 min in ice; test concentration not given.
The nature of assay [2]: Protection against clonic seizures caused by pentylenetetrazole in rats. Type of assay: in vivo, rat. Conditions: pentylenetetrazole 23 mg/kg i.v. at 30 or 60 min. As for the experimental part:
The anti-anxiety and anticonvulsant properties of the novel compounds of the present invention have been established in a test which indicates anxiolytic activity by the measure of protection from convulsions resulting from the administration of pentylenetetrazole. Single or graded dose levels of the test compounds were administered orally or intraperitoneally in a 2% starch vehicle, containing 0.5% v/v polyethylene glycol and one drop of Polysorbate 80 to groups of at least 4 rats. At 30 or 60 minutes, the rats were treated intravenously with pentylenetetrazole at a dose of 23 mg/kg of body weight. This dose is estimated to cause clonic seizures in 99% of unprotected rats. It has Been reported [R. T. Hill and D. H. Tedeschi, "Animal Testing and Screening Procedures in Evaluating Psychotropic Drugs" in "An Introduction to Psychopharmacology",Eds. R. R. Rech and K. E. Moore, Raven Press, N.Y., pp 237-288 (1971)]that there is a high degree of correlation between antagonism of pentylenetetrazole seizures in rats and anti-anxiety or anticonvulsant effects in higher warm-blooded animals.

Assay [3] in a line: Nonconditioned passive avoidance (conflict) test in rats. Type of assay: in vivo, rat (Wistar strain). Conditions: 25 mg/kg oral or i.p., 30 to 60 min, active if number of shocks received is significantly higher than control group by Mann-Witney U test. The procedure: Another test which has been used to assess antianxiety effects is a nonconditioned passive avoidance procedure described by [J. R. Vogel, B. Beer and D. E. Clody, "A Simple and Reliable Conflict Procedure for Testing Anti-Anxiety Agents", Psychopharmacologia, 21, 1-7(1971)]. A conflict situation is induced in rats by a modification of this method.
Groups of 6 naive, Wistar strain rats, weighing 200-240 g each were deprived of water for 48 hours and food for 24 hours. The test compounds were administered in single or graded, oral or intraperitoneal doses, suspended in a 2% starch vehicle containing 0.5% v/v polyethylene glycol and one drop of polysorbate 80. Control animals received the vehicle alone. At 30 to 60 minutes each rat was placed in an individual plexiglass chamber. Water was available ad libitum from a tap located in the rear of the chamber. A 0.7 milliampere DC shocking current was established between the stainless steel grid floor and the tap. After 20 licks of nonshocked drinking, a shock was delivered for 2 seconds and then further shocks were delivered on a ratio of one shock for 2 seconds for every 20 licks. This was continued for a total of 3 minutes. The number of shocks taken by each rat during the 3 minute interval was recorded and compared to a control group. […]

The mark [4] stands for this setting: Rattus norvegicus, 25 mg/kg oral or i.p., read-out: % of Rats Protected.

Broadly, the % Inhibition is the relative decrease from the control value, in per cent.

As for `Cc1nccn1-c1cccc(-c2ccnc3c(C(=O)c4ccccc4)cnn23)c1` [Example 1, [7-[3-(2-Methyl-1H-imidazol-1-yl)phenyl]pyrazolo[1,5-a]pyrimidin-3-yl]phenylmethanone compound with dichloromethane (20:1;)], in assay [1], the “% Inhibition” value turned out to be 98%. Also, in assay [2] (setting [4]), the responders at 25 mg/kg was 100%. The “Nonconditional Passive Avoidance Test result” value in assay [3] was “active”.

For `Cc1nccn1-c1cccc(-c2ccnc3c(C#N)cnn23)c1` [Example 2, 7-[3-(2-methyl-1H-imidazol-1-yl)-phenyl]pyrazolo[1,5-a]pyrimidine-3-carbonitrile compd. with dichloromethane 20:1], in assay [1], the “% Inhibition” value came to 88%. Besides, the responders at 25 mg/kg in assay [2] (setting [4]) came to 75%. Besides, the “Nonconditional Passive Avoidance Test result” value in assay [3] is “inactive”.

Turning to `N#Cc1cnn2c(-c3cccc(-n4ccnc4)c3)ccnc12` [Example 3, 7-[3-(1H-imidazol-1-yl)phenyl]-pyrazolo[1,5-a]pyrimidine-3-carbonitrile], in assay [1], the “% Inhibition” value is 44%. For the same compound, the responders at 25 mg/kg in assay [2] (setting [4]) is 100%. Further, the “Nonconditional Passive Avoidance Test result” value in assay [3] was “active”.

For `O=C(c1ccccc1)c1cnn2c(-c3cccc(-n4ccnc4)c3)ccnc12` [Example 4, [7-[3-(1H-imidazol-1-yl)phenyl]pyrazolo[1,5-a]pyrimidin-3-yl]phenylmethanone], the “% Inhibition” value in assay [1] was 94%. The responders at 25 mg/kg in assay [2] (setting [4]) was 100%. In addition, in assay [3], the “Nonconditional Passive Avoidance Test result” value was “inactive”.

Regarding `O=C(c1ccco1)c1cnn2c(-c3cccc(-n4ccnc4)c3)ccnc12` [Example 5, 2-furanyl[7-[3-(1H-imidazol-1-yl)-phenyl]-pyrazolo[1,5-a]pyrimidin-3-yl]methanone], the “% Inhibition” value in assay [1] stood at 72%. Also, the responders at 25 mg/kg in assay [2] (setting [4]) came out at 100%. Besides, the “Nonconditional Passive Avoidance Test result” value in assay [3] is given as “active”.

Consider `c1cc(-c2ccnc3ccnn23)cc(-n2ccnc2)c1` [Example 6, 7-[3-(1H-imidazol-1-yl)-phenyl]pyrazolo[1,5-a]pyrimidine], for which the “% Inhibition” value in assay [1] is listed as 72%. Besides, the responders at 25 mg/kg in assay [2] (setting [4]) stood at 0%. Also, the “Nonconditional Passive Avoidance Test result” value in assay [3] is “inactive”.

On to `Cc1nccn1-c1cccc(-c2ccnc3c(C(=O)c4ccco4)cnn23)c1` [Example 7, 2-furanyl[7-[3-(2-methyl-1H-imidazol-1-yl)phenyl]pyrazolo[1,5-a]pyrimidin-3-yl]methanone compd. with dichloromethane (100:3)], for which the “% Inhibition” value in assay [1] turned out to be 101%. Also, in assay [2] (setting [4]), the responders at 25 mg/kg worked out at 25%. In assay [3], the “Nonconditional Passive Avoidance Test result” value is recorded as “active”.

Regarding `Cc1cn(-c2cccc(-c3ccnc4c(C(=O)c5cccs5)cnn34)c2)cn1` [Example 8, [7-[3-(4-methyl-1H-imidazol-1-yl)-phenyl]pyrazolo[1,5-a]pyrimidin-3-yl]-2-thienyl-methanone], the “% Inhibition” value in assay [1] was found to be 75%. The responders at 25 mg/kg in assay [2] (setting [4]) was determined as 75%. The “Nonconditional Passive Avoidance Test result” value in assay [3] is “active”.

As for `Cc1cn(-c2cccc(-c3ccnc4c(C(=O)c5ccco5)cnn34)c2)cn1` [Example 9, 2-furanyl[7-[3-(4-methyl-1H-imidazol-1-yl)phenyl]pyrazolo[1,5-a]pyrimidin-3-yl]methanone compd. with dichloromethane (20:1)], the “% Inhibition” value in assay [1] came to 98%. Moreover, in assay [2] (setting [4]), the responders at 25 mg/kg came out at 50%. For the same compound, the “Nonconditional Passive Avoidance Test result” value in assay [3] is “active”.

With `Cc1nccn1-c1cccc(-c2ccnc3c(C(=O)c4cccs4)cnn23)c1` [Example 10, [7-[3-(2-methyl-1H-imidazol-1-yl)-phenyl]pyrazolo[1,5-a]pyrimidin-3-yl]-2-thienyl-methanone], the “% Inhibition” value in assay [1] was found to be 99%. Moreover, in assay [2] (setting [4]), the responders at 25 mg/kg is 100%. Also, the “Nonconditional Passive Avoidance Test result” value in assay [3] is recorded as “active”.

For the compound `O=C(c1cccs1)c1cnn2c(-c3cccc(-n4ccnc4)c3)ccnc12` [Example 11, [7-[3-(1H-imidazol-1-yl)phenyl]pyrazolo[1,5-a]pyrimidin-3-yl]-2-thienyl-methanone], the “% Inhibition” value in assay [1] was found to be 100%. Further, the responders at 25 mg/kg in assay [2] (setting [4]) was found to be 50%. Further, the “Nonconditional Passive Avoidance Test result” value in assay [3] was “inactive”.

As to `Cc1nccn1-c1cccc(-c2ccnc3c(Cl)cnn23)c1` [Example 12, 3-chloro-7-[3-(2-methyl-1H-imidazol-1-yl)phenyl]pyrazolo[1,5-a]pyrimidine compd. with dichloromethane (20:1)], the responders at 25 mg/kg in assay [2] (setting [4]) was 100%. Besides, in assay [3], the “Nonconditional Passive Avoidance Test result” value is “active”.

On to `Cc1nccn1-c1cccc(-c2ccnc3ccnn23)c1` [Example 13, 7-[3-(2-methyl-1H-imidazol-1-yl)-phenyl]pyrazolo[1,5-a]pyrimidine], for which the responders at 25 mg/kg in assay [2] (setting [4]) is 50%. Moreover, the “Nonconditional Passive Avoidance Test result” value in assay [3] is “active”.

`Cc1cn(-c2cccc(-c3ccnc4c(C(=O)c5ccccc5)cnn34)c2)cn1` [Example 14, [7-[3-(4-methyl-1H-imidazol-1-yl)-phenyl]pyrazolo[1,5-a]pyrimidin-3-yl]-phenylmethanone compd. with dichloromethane (20:1)]: in assay [1], the “% Inhibition” value is 93%. Besides, in assay [2] (setting [4]), the responders at 25 mg/kg was determined as 100%. In assay [3], the “Nonconditional Passive Avoidance Test result” value is “active”.

On to `CCc1nccn1-c1cccc(-c2ccnc3c(C(=O)c4ccccc4)cnn23)c1` [Example 15, [7-[3-(2-ethyl-1H-imidazol-1-yl)-phenyl]pyrazolo[1,5-a]pyrimidin-3-yl]-phenylmethanone], for which the “% Inhibition” value in assay [1] stood at 98%. In addition, the “% of Rats Protected (result in words)” value in assay [2] (6.25 mg/kg oral or i.p.) is “active”. The “Nonconditional Passive Avoidance Test result” value in assay [3] is listed as “active”.

Take `O=C(c1ccncc1)c1cnn2c(-c3cccc(-n4ccnc4)c3)ccnc12` [Example 17, [7-[3-(1H-imidazol-1-yl)-phenyl]pyrazolo[1,5-a]pyrimidin-3-yl]-4-pyridinylmethanone]: the “% Inhibition” value in assay [1] was 90%. Besides, in assay [2] (25 mg/kg oral or i.p.), the “% of Rats Protected (result in words)” value is “inactive”. The “Nonconditional Passive Avoidance Test result” value in assay [3] is given as “active”.

For the compound `Cc1nccn1-c1cccc(-c2ccnc3c(C#N)c(N)nn23)c1.Cl` [Example 19, 2-amino-7-[3-(2-methyl-1H-imidazol-1-yl)phenyl]pyrazolo-[1,5-a]pyrimidine-3-carbonitrile monohydrochloride], the responders at 3.1 mg/kg in assay [2] (Rattus norvegicus, 3.1 mg/kg oral or i.p., read-out: % of Rats Protected) is 50%. The “Nonconditional Passive Avoidance Test result” value in assay [3] is listed as “active”.

For the compound `Cc1cn(-c2cccc(-c3ccnc4c(C#N)cnn34)c2)cn1` [Example 20, 7-[3-(4-methyl-1H-imidazol-1-yl)-phenyl]pyrazolo[1,5-a]pyrimidine-3-carbonitrile], in assay [2] (setting [4]), the responders at 25 mg/kg came to 0%. Moreover, the “Nonconditional Passive Avoidance Test result” value in assay [3] was “inactive”.

On to `CCOC(=O)c1cnn2c(-c3cccc(-n4ccnc4C)c3)ccnc12` [Example 21, ethyl 7-[3-(2-methyl-1H-imidazol-1-yl)phenyl]pyrazolo[1,5-a]pyrimidine-3-carboxylate], for which the “% Inhibition (result in words)” value in assay [1] was “inactive”. The responders at 25 mg/kg in assay [2] (setting [4]) is 0%. The “Nonconditional Passive Avoidance Test result” value in assay [3] was “inactive”.

These data come from patent publication US5538977A, “3-Substituted-7-[3-(imidazol-1-yl)phenyl]-pyrazolo[1,5-a]pyrimidines” (American Cyanamid Company, priority 1995, dated 1996).
